Source: ChEMBL document CHEMBL1201862, “PubChem BioAssay data set” (2004)
The source made the active and inactive calls.

Legend:
[1] = biological target: Voltage-dependent T-type calcium channel subunit alpha-1H (Homo sapiens, UniProt O95180); format: functional;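 further: channel activity triggered by adding a high calcium stimulation buffer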
[2] = biological target: T1, Calpain-2 catalytic subunit (Sus scrofa, UniProt P43367); assay: pig calpain II inhibitor potency, dose response, biochemical, fluorogenic peptide substrate (AID 1420); format: functional
T1 sequence (P43367 whole entry): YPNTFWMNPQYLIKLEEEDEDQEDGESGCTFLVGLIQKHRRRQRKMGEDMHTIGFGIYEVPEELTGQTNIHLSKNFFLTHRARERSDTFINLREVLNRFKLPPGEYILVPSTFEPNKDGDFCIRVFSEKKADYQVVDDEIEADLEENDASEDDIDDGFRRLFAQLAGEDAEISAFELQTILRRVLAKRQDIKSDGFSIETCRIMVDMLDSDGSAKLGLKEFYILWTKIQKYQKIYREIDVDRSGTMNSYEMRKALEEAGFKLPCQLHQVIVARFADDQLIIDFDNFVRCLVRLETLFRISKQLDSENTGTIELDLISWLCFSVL

Streptococcus = assay: Group A Streptococcus viability loss, dose response, counter-screen for streptokinase expression inhibitor project, luminescence, BacTiterGlo (AID 1915); format: functional, organism-based;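 further: potency for reduction of bacterial viability or growth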
Streptokinase A = biological target: T2, Streptokinase A (Streptococcus pyogenes serotype M1, UniProt P10520); assay: S. pyogenes streptokinase expression inhibitors, potency, dose response, plasminogen activation absorbance, OD405 (AID 1914); format: functional, Streptococcus pyogenes M1 GAS;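 further: secreted streptokinase activity via plasminogen activation per viability signal from cell pellet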
T2 sequence (P10520 whole entry): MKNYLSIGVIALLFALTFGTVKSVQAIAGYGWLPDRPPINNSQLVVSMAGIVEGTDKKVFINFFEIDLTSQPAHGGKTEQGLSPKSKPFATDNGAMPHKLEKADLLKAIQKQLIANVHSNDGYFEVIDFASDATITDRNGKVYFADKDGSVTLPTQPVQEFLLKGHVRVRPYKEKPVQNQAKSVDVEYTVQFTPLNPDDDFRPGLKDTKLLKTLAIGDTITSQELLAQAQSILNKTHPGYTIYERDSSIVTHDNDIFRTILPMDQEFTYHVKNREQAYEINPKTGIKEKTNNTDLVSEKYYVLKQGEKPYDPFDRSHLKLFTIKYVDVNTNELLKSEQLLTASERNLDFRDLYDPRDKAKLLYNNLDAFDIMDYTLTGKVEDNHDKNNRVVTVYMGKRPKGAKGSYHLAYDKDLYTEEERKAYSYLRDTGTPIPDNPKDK

[3] = biological target: T3, Polyadenylate-binding protein 1 (Homo sapiens, UniProt P11940); assay: PABP1 MLLE–PAM2 binding inhibitor potency, dose response, biochemical, fluorescence polarization, FITC-PAM2 peptide (AID 602259); format: functional; conditions: read-out: IC50_Mean
T3 sequence (P11940 whole entry): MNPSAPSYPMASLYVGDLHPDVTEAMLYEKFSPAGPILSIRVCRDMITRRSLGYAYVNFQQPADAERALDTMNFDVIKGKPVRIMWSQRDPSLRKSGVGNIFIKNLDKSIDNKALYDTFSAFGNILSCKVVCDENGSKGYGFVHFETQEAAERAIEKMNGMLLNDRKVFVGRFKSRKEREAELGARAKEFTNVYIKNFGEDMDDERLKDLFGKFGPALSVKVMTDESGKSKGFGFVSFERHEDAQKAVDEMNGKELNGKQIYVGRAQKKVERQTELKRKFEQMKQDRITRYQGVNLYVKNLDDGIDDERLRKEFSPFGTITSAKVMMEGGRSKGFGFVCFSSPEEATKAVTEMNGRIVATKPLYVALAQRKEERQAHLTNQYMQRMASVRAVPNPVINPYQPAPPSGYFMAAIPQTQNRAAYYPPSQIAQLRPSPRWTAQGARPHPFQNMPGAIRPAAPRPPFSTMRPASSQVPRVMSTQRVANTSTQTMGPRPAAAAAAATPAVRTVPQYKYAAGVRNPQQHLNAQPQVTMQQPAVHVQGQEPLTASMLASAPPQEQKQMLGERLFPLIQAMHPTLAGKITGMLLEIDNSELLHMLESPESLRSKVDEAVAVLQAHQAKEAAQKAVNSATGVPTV

[4] = system: Streptococcus sp. 'group A'; assay: growth inhibition of control SK(-) GAS strain, dose response, counter-screen for streptokinase expression inhibitor project, luminescence, kanamycin, BacTiterGlo, confirmation (AID 1900); format: functional, organism-based
[5] = biological target: T3, Polyadenylate-binding protein 1; assay: PABP1 MLLE–PAM2 interaction inhibitors, dose response, miRNA deadenylation inhibitor project, biochemical, fluorescence polarization, Cy5-PAM2 peptide, secondary (AID 602260); format: functional; conditions: read-out: IC50_Mean
[6] = microbe, parasite or virus in culture; format: functional; conditions: Mycobacterium tuberculosis
[7] = Luminescence Cell-Based Dose Confirmation HTS to Identify Inhibitors of Platelet Dense Granule Release. [Related pubchem assays: 1663 (Primary HTS), 1678 (Summary of Project)]; format: functional
[8] = biological target: Luciferin 4-monooxygenase (Photinus pyralis, UniProt P08659); assay: firefly luciferase enzyme inhibitors, dose response, biochemical, luminescence (AID 1891)
Sequence of Luciferin 4-monooxygenase (P08659 whole entry): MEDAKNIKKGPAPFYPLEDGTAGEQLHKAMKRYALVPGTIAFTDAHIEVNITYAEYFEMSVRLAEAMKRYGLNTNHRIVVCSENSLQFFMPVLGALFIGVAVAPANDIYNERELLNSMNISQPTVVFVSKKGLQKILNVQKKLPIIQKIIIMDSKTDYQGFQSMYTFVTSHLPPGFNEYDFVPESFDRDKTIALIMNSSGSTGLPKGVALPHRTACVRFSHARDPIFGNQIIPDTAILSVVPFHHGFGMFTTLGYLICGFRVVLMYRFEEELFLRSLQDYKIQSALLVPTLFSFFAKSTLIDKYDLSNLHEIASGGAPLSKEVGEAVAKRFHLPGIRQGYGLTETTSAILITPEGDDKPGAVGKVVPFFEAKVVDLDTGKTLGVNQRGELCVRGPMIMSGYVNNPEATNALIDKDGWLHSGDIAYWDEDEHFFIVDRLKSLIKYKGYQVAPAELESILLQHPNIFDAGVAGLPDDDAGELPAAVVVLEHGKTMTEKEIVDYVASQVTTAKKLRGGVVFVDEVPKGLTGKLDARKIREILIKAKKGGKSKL

[9] = Luminescence Cell-Based Dose Response HTS to Identify Inhibitors of 5'UTR Stem-Loop Driven Prion Protein mRNA Translation in H4 Neuroglioblastoma Cells. [Related pubchem assays: 1827 (Project Summary), 1813 (Primary HTS)]; format: functional
[10] = inhibitors of firefly luciferase expression or activity, dose response, H4 neuroglioma cells, luminescence (AID 1990); format: functional, cell-based
[11] = inhibitors of SNCA 5'UTR-driven reporter translation, confirmation, H4 neuroglioma cells, luminescence (AID 1988); format: functional, cell-based
[12] = biological target: FAD-linked sulfhydryl oxidase ALR (Homo sapiens, UniProt P55789); assay: inhibitors of human ALR sulfhydryl oxidase, dose response, biochemical, H2O2 detection, luminescence, cherry-pick (AID 493248)
Sequence of FAD-linked sulfhydryl oxidase ALR (P55789 whole entry): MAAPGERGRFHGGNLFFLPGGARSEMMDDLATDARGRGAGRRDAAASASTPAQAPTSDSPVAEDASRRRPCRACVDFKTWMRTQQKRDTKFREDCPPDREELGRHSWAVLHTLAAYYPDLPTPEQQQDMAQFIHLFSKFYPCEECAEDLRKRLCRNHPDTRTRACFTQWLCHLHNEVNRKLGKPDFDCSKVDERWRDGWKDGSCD

[13] = biological target: T4, Rac GTPase-activating protein 1 (Homo sapiens, UniProt Q9H0H5); assay: MgcRacGAP GTPase-activating activity inhibitors, confirmation, biochemical, ADP Hunter fluorescence, primary and confirmatory (AID 624330); format: functional
T4 sequence (Q9H0H5 whole entry): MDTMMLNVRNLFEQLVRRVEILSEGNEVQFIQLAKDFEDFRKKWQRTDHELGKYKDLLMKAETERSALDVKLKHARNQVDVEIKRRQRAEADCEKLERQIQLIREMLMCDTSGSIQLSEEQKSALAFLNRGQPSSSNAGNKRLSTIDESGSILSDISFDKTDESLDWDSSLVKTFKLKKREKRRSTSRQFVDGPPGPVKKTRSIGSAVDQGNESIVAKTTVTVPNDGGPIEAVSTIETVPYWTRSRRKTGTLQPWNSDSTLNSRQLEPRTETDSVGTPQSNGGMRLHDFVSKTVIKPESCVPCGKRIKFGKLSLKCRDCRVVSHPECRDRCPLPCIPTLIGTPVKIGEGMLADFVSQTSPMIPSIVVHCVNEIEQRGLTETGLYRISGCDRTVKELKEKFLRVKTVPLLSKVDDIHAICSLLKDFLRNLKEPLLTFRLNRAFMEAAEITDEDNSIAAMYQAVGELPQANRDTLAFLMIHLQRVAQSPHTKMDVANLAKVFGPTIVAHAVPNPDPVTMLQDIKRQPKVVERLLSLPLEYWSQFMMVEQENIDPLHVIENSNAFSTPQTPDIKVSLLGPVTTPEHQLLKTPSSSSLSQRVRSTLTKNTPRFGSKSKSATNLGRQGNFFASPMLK

[14] = biological target: T5, Heat shock factor protein 1 (Mus musculus, UniProt P38532); assay: inhibition of MG132-induced HSE-luciferase signal, confirmation, cell-based, NIH3T3, luminescence, dose retest (AID 2382); format: functional;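 further: NIH3T3 fibroblasts with HSF1-driven luciferase reporter stressed by proteasome inhibitor MG132; luminescence from HSF1-driven luciferase expression after 8 hours of MG132 stress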
T5 sequence (P38532 whole entry): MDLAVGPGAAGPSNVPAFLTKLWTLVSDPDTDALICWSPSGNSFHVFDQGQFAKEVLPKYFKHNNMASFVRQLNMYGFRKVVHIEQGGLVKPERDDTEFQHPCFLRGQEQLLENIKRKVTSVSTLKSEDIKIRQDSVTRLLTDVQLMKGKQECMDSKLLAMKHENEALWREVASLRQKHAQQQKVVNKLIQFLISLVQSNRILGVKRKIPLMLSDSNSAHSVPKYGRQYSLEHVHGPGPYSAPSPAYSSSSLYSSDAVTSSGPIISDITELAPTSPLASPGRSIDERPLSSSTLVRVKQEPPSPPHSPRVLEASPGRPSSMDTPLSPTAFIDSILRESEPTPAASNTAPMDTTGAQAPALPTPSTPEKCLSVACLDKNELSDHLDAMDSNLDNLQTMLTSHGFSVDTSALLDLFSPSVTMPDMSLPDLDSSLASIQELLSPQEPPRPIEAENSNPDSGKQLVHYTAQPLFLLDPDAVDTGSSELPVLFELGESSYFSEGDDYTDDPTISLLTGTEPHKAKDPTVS

Cytochrome P450 2C9 = Cytochrome P450 2C9 (Homo sapiens, UniProt P11712)
Sequence of Cytochrome P450 2C9 (P11712 whole entry): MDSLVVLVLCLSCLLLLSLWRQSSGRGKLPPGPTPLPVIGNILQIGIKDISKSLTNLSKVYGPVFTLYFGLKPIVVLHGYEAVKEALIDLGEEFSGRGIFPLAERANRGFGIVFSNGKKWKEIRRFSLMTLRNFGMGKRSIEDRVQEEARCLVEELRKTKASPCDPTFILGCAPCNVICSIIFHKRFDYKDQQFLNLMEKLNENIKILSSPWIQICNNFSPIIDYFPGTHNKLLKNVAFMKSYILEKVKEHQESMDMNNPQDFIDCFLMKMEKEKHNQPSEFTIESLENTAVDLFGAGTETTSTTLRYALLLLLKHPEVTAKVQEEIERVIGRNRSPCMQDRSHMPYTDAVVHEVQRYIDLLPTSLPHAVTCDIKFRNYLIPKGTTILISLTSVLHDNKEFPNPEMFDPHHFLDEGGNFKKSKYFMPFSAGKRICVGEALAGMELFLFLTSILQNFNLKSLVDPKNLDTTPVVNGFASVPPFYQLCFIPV

Cytochrome P450 2D6 = Cytochrome P450 2D6 (Homo sapiens, UniProt P10635);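 further: CYP2D6 member of a cytochrome P450 panel assay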
Sequence of Cytochrome P450 2D6 (P10635 whole entry, the tested form may be a part): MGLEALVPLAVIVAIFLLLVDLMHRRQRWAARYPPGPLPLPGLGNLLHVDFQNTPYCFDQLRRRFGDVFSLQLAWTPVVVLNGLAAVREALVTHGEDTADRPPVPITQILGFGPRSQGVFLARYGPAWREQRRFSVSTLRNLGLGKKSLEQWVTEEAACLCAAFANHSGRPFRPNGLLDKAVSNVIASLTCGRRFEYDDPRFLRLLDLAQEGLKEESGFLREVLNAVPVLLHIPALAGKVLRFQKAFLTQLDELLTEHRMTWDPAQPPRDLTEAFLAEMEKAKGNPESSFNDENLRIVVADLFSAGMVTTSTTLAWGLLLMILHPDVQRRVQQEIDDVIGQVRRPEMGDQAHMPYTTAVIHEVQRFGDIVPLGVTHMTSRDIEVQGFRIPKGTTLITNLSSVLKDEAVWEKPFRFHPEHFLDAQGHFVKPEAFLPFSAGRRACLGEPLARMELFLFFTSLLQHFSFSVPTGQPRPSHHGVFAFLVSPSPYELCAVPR

[15] = inhibitors of HIV Env-driven cell fusion, dose response, cherry-pick (AID 652057); format: functional, cell-based
[16] = ZM109 Env clade C HIV-1 fusion inhibitors, dose response, HeLa effector, CEM target cells, luciferase, cherry-pick (AID 652058); format: functional, cell-based
[17] = HepG2 cell cytotoxicity, dose response, cytotoxicity control for Shn3 inhibitor project, CellTiter-Glo, cherry-picked (AID 624134); format: functional, cell-based
[18] = inhibitors of clade B AD8 Env fusion, dose response, cell-based, cherry-pick (AID 652062); format: functional;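 further: luciferase signal from cell-cell fusion driven by HIV-1 clade B AD8 Env; potency is for inhibitors of fusion seen as a drop in luminescence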
[19] = Shn3 3'UTR reporter inhibitors, dose response, cell-based, Clone20 osteoblasts, firefly luciferase, cherry-picked (AID 624132); format: functional;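 further: firefly luciferase luminescence from reporter carrying the Shn3 3'UTR in osteoblasts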
cells = format: functional
Cytochrome P450 3A4 = Cytochrome P450 3A4 (Homo sapiens, UniProt P08684);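 further: CYP3A4 tested as one member of a cytochrome P450 panel screen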

Sequence of Voltage-dependent T-type calcium channel subunit alpha-1H (O95180 whole entry): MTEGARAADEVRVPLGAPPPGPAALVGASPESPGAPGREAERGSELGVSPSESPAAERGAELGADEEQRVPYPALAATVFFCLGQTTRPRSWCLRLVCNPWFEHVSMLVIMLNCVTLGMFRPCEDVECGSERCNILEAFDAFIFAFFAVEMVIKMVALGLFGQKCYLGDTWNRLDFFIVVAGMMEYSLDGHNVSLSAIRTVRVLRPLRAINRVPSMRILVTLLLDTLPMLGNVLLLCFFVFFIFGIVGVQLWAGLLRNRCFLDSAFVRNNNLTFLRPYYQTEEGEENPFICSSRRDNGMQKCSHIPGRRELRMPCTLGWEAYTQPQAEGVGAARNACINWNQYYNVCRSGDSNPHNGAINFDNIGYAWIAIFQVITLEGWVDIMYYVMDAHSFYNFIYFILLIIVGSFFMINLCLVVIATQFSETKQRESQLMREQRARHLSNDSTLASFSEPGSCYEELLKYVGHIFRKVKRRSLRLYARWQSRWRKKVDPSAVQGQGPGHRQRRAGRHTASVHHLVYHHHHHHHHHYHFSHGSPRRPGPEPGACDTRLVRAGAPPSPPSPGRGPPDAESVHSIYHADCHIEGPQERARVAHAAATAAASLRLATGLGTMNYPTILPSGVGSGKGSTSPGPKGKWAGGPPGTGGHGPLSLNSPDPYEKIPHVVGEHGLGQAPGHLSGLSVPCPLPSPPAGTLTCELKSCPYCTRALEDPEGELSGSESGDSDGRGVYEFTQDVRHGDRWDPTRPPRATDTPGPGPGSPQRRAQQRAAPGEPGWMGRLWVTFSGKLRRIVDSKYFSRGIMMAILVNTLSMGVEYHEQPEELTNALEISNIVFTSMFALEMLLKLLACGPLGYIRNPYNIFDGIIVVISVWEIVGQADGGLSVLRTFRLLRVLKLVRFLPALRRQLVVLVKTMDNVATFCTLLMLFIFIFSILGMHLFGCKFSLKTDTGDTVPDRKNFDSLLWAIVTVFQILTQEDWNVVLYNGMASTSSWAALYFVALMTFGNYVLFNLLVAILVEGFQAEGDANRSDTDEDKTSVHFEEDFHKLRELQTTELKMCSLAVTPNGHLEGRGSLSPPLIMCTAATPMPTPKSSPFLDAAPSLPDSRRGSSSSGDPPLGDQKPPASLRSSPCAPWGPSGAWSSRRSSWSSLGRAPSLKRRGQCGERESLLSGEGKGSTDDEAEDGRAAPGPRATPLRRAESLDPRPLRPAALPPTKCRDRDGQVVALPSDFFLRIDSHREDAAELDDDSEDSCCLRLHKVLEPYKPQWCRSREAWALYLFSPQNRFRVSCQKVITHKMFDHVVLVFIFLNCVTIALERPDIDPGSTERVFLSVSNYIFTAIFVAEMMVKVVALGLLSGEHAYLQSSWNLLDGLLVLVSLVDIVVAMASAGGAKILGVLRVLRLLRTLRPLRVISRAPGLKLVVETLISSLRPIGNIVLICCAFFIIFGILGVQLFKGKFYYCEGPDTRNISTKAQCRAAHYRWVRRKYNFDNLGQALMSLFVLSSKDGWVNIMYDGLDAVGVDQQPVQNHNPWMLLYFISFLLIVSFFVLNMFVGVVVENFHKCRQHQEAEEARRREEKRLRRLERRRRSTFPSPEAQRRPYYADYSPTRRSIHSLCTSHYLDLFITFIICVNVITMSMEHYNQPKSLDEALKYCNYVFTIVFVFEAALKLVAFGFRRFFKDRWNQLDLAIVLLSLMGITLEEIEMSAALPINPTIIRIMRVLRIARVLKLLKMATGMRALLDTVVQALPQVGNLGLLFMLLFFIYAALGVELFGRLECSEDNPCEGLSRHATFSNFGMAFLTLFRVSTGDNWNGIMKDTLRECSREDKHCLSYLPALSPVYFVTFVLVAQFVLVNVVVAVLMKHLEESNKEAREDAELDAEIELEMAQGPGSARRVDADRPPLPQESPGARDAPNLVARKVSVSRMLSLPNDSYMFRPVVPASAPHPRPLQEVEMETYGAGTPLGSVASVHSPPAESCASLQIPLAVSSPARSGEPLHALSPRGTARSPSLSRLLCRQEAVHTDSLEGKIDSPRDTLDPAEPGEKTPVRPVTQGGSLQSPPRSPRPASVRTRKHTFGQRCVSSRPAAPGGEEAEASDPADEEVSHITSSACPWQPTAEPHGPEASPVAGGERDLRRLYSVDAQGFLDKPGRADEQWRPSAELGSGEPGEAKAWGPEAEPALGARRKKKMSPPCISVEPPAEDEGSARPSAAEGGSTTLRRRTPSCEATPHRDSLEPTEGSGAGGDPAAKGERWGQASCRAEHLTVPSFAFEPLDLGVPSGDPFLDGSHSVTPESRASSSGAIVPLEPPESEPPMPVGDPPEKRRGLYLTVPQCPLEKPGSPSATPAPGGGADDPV

SMILES: Cc1ccc(-c2noc(CN(C(=O)CCCCCN3C(=O)c4ccccc4C3=O)C(C)C)n2)cc1
- EC50 [1]: 7.53 µM (active)
- IC50 [2]: 5.93 µM (not active)

SMILES: COc1ccc(NC(=S)N=Nc2c(O)[nH]c3ccccc23)cc1
- EC50 (Streptococcus): 14.1 µM (active)
- EC50 (Streptokinase A): > 150 µM (not active)
- IC50 [3]: > 66 µM (inactive)
- EC50 [4]: 2.34 µM (active)
- IC50 [5]: > 66 µM (inactive)

SMILES: Cc1cnc(NC(=O)NCC2CCCC(CNC(=O)Nc3ncc(C)s3)C2)s1 (stereo not given)
- CC50 [6]: > 40 µM (active)

SMILES: COc1c(/C=N/NC(=O)c2ccccc2O)c(CCN(C)C(C)=O)cc2c1OCO2
- EC50 [7]: > 112 µM (not active)
- EC50 [8]: > 112 µM (not active)

SMILES: CC1(C)Cc2c(sc(NC(=O)c3ccc(C(=O)c4ccccc4)cc3)c2C(N)=O)C(C)(C)N1
- EC50 [9]: 16.9 µM (active)
- EC50 (Streptococcus): > 150 µM (not active)
- EC50 (Streptokinase A): > 150 µM (not active)
- CC50 [6]: 20.7 µM (active)
- EC50 [10]: 10.3 µM (active)
- EC50 [4]: 26.3 µM (active)
- EC50 [11]: 11.6 µM (active)

SMILES: COc1ccc(-c2nn(-c3ccccc3)cc2C(=O)O)cc1OC
- EC50 [7]: > 112 µM (not active)
- EC50 [8]: > 112 µM (not active)

SMILES: O=C(CC(Nc1ccccc1Cl)C(=O)O)c1ccccc1 (stereo not given)
- AC50 [12]: 13 µM (active)

SMILES: Cc1ccc(NC(=O)N2CCC(c3ccccc3)C2)cc1C (stereo not given)
- EC50 [7]: > 112 µM (not active)
- EC50 [8]: > 112 µM (not active)

SMILES: Cc1cc(C)c(S(=O)(=O)Nc2ccc(N(C)C)cc2)c(C)c1-n1cnnn1
- IC50 [13]: 41.6 µM (active)
- EC50 [14]: > 195 µM (not active)
- AC50 [12]: 0.197 µM (active)

SMILES: O=C(Cn1cccc1)N1CCN(c2ccc(F)cc2)CC1
- EC50 [7]: > 112 µM (not active)
- EC50 [8]: > 112 µM (not active)

SMILES: CCCOC(=O)c1ccc(NC(=O)c2ccoc2C)cc1
- EC50 [7]: 5.2 µM (active)
- EC50 [8]: 4.18 µM (active)

SMILES: CC(=O)c1ccc2c(c1)C1C(Cl)C(Sc3ccccc3[N+](=O)[O-])CC1C(c1ccccc1)N2 (stereo not given)
- CC50 [6]: > 40 µM (active)

SMILES: O=c1[nH]c2cc3c(cc2cc1CN(CCCO)Cc1nnnn1Cc1ccc(F)cc1)OCO3
- AC50 (Cytochrome P450 2C9): 11.2 µM (inconclusive)
- IC50 [3]: > 66 µM (inactive)
- AC50 (Cytochrome P450 2D6): 12.6 µM (inconclusive)
- IC50 [5]: > 66 µM (inactive)

SMILES: COc1cccc(/C=C2\SC(=S)N(c3cccnc3)C2=O)c1OC
- IC50 [3]: > 66 µM (inactive)
- IC50 [5]: > 66 µM (inactive)

SMILES: Cn1cccc1Cc1nnc(SCC(=O)Nc2ccc(F)cc2)n1-c1ccc(F)cc1
- EC50 [1]: 2.17 µM (active)

SMILES: CCC12CN(S(=O)(=O)c3ccc(C)cc3)CC(CC)(CN(S(=O)(=O)c3ccc(C)cc3)C1)C2=O
- AC50 [15]: 2.44 µM (active)
- AC50 [16]: 42.7 µM (active)
- AC50 [17]: 66.7 µM (active)
- AC50 [18]: 22 µM (active)
- AC50 [19]: 3.48 µM (active)

SMILES: O=C(/C=C/c1cn(-c2ccccc2)nc1-c1cccnc1)c1ccco1
- CC50 [6]: 11.5 µM (active)

SMILES: O=C(O)CCCCCCC1C(=O)NC(=O)N1CCC(O)C1CCCCC1 (stereo not given)
- EC50 [7]: < 0.088 µM (active)
- EC50 [8]: > 112 µM (not active)

SMILES: Cc1ccc(C(=O)N2CCN(c3ccccc3O)CC2)cc1S(=O)(=O)N1CCCCC1
- AC50 [12]: 9.33 µM (active)

SMILES: O=C(NC12CC3CC(CC(C3)C1)C2)c1cnccn1
- IC50 [3]: 38.7 µM (inactive)
- IC50 [5]: 43.3 µM (inactive)

SMILES: CCOc1ccc(-c2cc(CCCC(=O)NCCC(C)C)no2)cc1
- IC50 (cells): 10.6 µM (active)
- CC50 [6]: > 40 µM (active)

SMILES: O=C1/C(=C\c2ccc([N+](=O)[O-])cc2)CCc2ccccc21
- EC50 [7]: 2.53 µM (active)
- EC50 [8]: 8.13 µM (active)

SMILES: CC1(c2ccc3noc(-c4ccc(F)cc4)c3c2)OCCO1
- IC50 [3]: 19.3 µM (active)
- IC50 [5]: > 66 µM (inactive)

SMILES: Cn1cccc1Cc1nnc(SCC(=O)Nc2cccc(F)c2)n1-c1ccc(F)cc1
- EC50 [1]: 3.35 µM (active)

SMILES: CCS(=O)(=O)n1nc(NCc2cccc(OC)c2)nc1NCc1cccc(OC)c1
- EC50 [1]: 8.18 µM (active)

SMILES: CNc1nnc(CSc2nc3ccccc3s2)s1
- AC50 [12]: 0.714 µM (active)

SMILES: Nc1ccc(-c2cc(N)n(-c3ccccc3)n2)cc1
- AC50 [12]: 0.8 µM (active)

SMILES: [O-][S+](Cc1cc(Oc2ccccc2)nc(-c2ccccc2)n1)c1ccccc1 (stereo not given)
- AC50 (Cytochrome P450 2C9): 3.98 µM (inconclusive)
- EC50 [1]: 7.24 µM (active)
- AC50 (Cytochrome P450 3A4): 28.2 µM (inconclusive)
- AC50 (Cytochrome P450 2D6): 1.26 µM (inconclusive)

SMILES: COc1ccc2c(c1)N(C(=O)CSc1n[nH]c(C)n1)C(C)(C)C=C2C
- EC50 [7]: > 112 µM (not active)
- EC50 [8]: > 112 µM (not active)

SMILES: CC1CN(C(=O)N2c3ccccc3Sc3ccccc32)C(C)CC1=O (stereo not given)
- EC50 [1]: 8.31 µM (active)
